Consider five substances from patent US20240299505A1, “COMPOSITION FOR IMPROVING, PREVENTING OR TREATING INFLAMMATORY BOWEL DISEASE COMPRISING NAMPT-DERIVED PEPTIDE AS ACTIVE INGREDIENT” (Industry-University Cooperation Foundation Hanyang …, priority 2023, published 2024).

Assay [1] deals with NLRP3 inflammasome signal 1. Put plainly: NLRP3 inflammasome signal 1 in LPS-treated BMDMs (IB, FACS ROS, cytokine ELISA). In kind it is cell-based, mice. The note with it: for production of cytokines (NF-κB-induced): ELISA of supernatants; for generation of ROS: FACS. The procedure: (§1) FIG. 4 confirms that NAMPT-derived peptides inhibit activation of signal 1 and 2 of NLRP3. Specifically, (A-C) BMDMs were stimulated with LPS for 4 hours and pretreated with rNAMPT for 1 hour (A, B) or 18 hours (C). (A) WCLs were used for IB with αIkB-α, αP-IkB-α, or αActin. (B) FACS analysis for H2O2 (probe for 2′,7′-dichlorofluorescin diacetate) or O^2− (probe for dihydroethidium). Quantitative analysis (upper) of mean fluorescence intensities of H2O2 and O^2− and NADPH oxidase activity (lower), (C) Culture supernatants (SN) were harvested and analyzed for cytokine ELISA. (D, E) LPS-primed BMDMs were treated with rNAMPT for 1 hour and then activated with ATP for 30 minutes. (D) ELISA for IL-1β and IL-18. (E) IB in SN with αIL-1β p17, αIL-18 p18, or αCasp1 p10 and IB of WCL with αPro-IL-1β, αPro-IL-18, αPro-Casp1, or αActin. […] Data come from three independent experiments that yielded similar results. (B-D) Data are provided as mean±SD of three experiments. Significance difference compared to LPS+PBS (*p<0.05; **p<0.01; ***p<0.001);
(§2) FIG. 5 illustrates results confirming an effect of TAT-NAMPT or NAMPT peptide on inflammation. Specifically, (A) BMDMs were stimulated with LPS (100 ng/ml) for 18 hours and pretreated with rNAMPT for 1 hour. Culture supernatants were collected and analyzed for cytokine ELISA. (B) LPS-primed BMDMs were treated with rNAMPT for 1 hour and then activated with nigericin for 30 minutes and DSS for 24 hours. ELISA for IL-1B and IL-18. […] The shown data are the mean±SD of three experiments. Significant difference comparing LPS+PBS (*p<0.05; **p<0.01; ***p<0.001);
Primary bone marrow-derived macrophages (BMDMs) were harvested from mice and cultured in DMEM in the presence of M-CSF (R&D Systems, 416-ML) for 3 to 5 days. HEK293T cells (ATCC-11268; American Type Culture Collection) were cultured in DMEM (Gibco) containing 10% FBS (Gibco), nonessential amino acids, sodium pyruvate, streptomycin (100 μg/mL) and penicillin G (100 IU/mL).
Polypeptides were separated by SDS-polyacrylamide gel electrophoresis and then transferred to a PVDF membrane for immunoblotting (IB) (Bio-Rad, Hercules, CA, USA). For immunodetection, specific antibodies were required, and Chemiluminescence (ECL; Millipore, MA, USA) was used to visualize an antibody bound to a target. In addition, a Vilber chemiluminescence analyzer was used to detect the antibody (Fusion SL3; Vilber Lourmat, Colégien, France).
Flow cytometry was used to quantify intracellular ROS levels. The cells were cultured in a serum-free medium and stained with 2 μM dihydroethidium (DHE for O^2−; Calbiochem) or 1 μM 2′,7′-dichlorodihydrofluorescein diacetate (H2DCFDA for H2O2; Calbiochem) as a redox-sensitive dye. mAbs were incubated at 4° C. for 20 to 30 minutes to determine cell surface protein expression, and cells were fixed using a Cytofix/Cytoperm Solution (BD Biosciences), and in a specific case, mAb incubation was performed to detect intracellular proteins. The used mAb clones were the following: ITGA6 (GoH3, BD Pharmingen™) and ITGB1 (HMβ1-1, BD Pharmingen™). The cells were washed completely and quickly with pulse spinning before being analyzed in a FACS Calibur (BD Biosciences, San Jose, CA, USA). CellQuest software (BD Biosciences) was used to visualize the data, and FlowJo software was used to analyze the data (Tree Star, Ash-land, OR, USA).
TNF-α, IL-6, IL-1β and IL-18 levels were measured in cell culture supernatants and mouse serum using the BD OptEIA ELISA system (BD Pharmingen). All experiments were performed according to the manufacturer's protocol.
To determine the effect of NAMPT peptides related to signal 1 for the NLRP3 inflammasome in macrophages, LPS-treated BMDMs were exposed to different concentrations of NAMPT peptides (aa 57-65, aa 52-56, or aa 52-65). […] Thus, the TAT-NAMPT peptides were less likely to inhibit the interaction of eNAMPT with TLR4 or CYBB.
A general note: ELISA stands for enzyme-linked immunosorbent assay.

In assay [2] the test system is NLRP3 inflammasome signal 2. Put plainly: NLRP3 inflammasome signal 2 in LPS-primed BMDMs activated with ATP, nigericin or DSS (ELISA, IB). In kind it is cell-based, mice. The procedure:
as §1, §2
Primary bone marrow-derived macrophages (BMDMs) were harvested from mice and cultured in DMEM in the presence of M-CSF (R&D Systems, 416-ML) for 3 to 5 days. […]
TNF-α, IL-6, IL-1β and IL-18 levels were measured in cell culture supernatants and mouse serum using the BD OptEIA ELISA system (BD Pharmingen). […]

Assay [3] concerns the target T1, NAMPT-CYBB binding (Homo sapiens, UniProt P04839).
T1 construct: The full-length (FL) CYBB and mutant plasmids were constructed as follows; expressed in transfected cells; host or cells: HEK293T (293T)
T1 sequence (P04839 1-570): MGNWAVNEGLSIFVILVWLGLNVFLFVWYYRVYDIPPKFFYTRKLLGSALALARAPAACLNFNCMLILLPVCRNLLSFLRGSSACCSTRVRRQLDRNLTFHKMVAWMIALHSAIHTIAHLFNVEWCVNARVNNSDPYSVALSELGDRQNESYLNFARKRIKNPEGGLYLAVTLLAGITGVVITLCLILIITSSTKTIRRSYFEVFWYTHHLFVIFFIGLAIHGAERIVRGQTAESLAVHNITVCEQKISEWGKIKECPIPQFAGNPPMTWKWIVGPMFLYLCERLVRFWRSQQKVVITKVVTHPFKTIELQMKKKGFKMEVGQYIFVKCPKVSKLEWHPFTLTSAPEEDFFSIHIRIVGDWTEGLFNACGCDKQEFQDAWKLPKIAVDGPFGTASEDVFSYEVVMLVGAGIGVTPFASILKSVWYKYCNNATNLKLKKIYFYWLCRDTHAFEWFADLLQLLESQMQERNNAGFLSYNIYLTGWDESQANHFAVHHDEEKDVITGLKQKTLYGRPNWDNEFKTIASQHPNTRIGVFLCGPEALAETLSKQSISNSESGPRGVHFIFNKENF
Put plainly: Co-immunoprecipitation of Myc-NAMPT with V5-CYBB in 293T cells treated with TAT-NAMPT peptides. In kind it is cell-based. The note with it: Myc-NAMPT and V5-CYBB, peptide 6 hours, 5 μM or 1, 5, 10 μM. The procedure:
(§3) FIG. 3 illustrates experimental design and results for identifying an essential region of NAMPT for binding to TLR4 and CYBB. Specifically, (A) Schematic diagram (upper) of the structures of NAMPT and TLR4. 293T cells were transfected with GST-NAMPT or its mutants and Flag-TLR4. GST pulldown was performed with 293T cells and then IB was performed using αFlag. WCLs were used for IB using αGST, αFlag, or αActin (lower, left in A). 293T cells were transfected with Flag-TLR4 or its mutants and Myc-NAMPT. The 293T cells were used for IP with αMyc, followed by IB with αFlag. WCLs were used for IB using αMyc, αFlag or αActin (lower, right in A). (B) 293T cells were transfected with Myc-NAMPT and Flag-TLR4 and treated with NAMPT peptide or its mutants for 6 hours (5 μM, left; 1, 5, 10 μM, right). The 293T cells were used for IP with αFlag, followed by IB with αMyc. WCLs were used for IB using αMyc, αFlag, or αActin. (C) Schematic diagram (upper) of the structures of CYBB. 293T cells were transfected with GST-NAMPT or its mutants and V5-CYBB (lower, left in C). The 293T cells were transfected with GST-CYBB or its mutants and Myc-NAMPT (lower, right in C). The 293T cells were subjected to GST pull-down, followed by IB with αV5 or αMyc. WCLs were used for IB using αGST, αMyc, a V5 or αActin. […]

For assay [4], the system named is NAMPT-TLR4 binding. Put plainly: Co-immunoprecipitation of Myc-NAMPT with Flag-TLR4 in 293T cells treated with TAT-NAMPT peptides. The assay is classed as cell-based. The note with it: Myc-NAMPT and Flag-TLR4, peptide 6 hours, 5 μM or 1, 5, 10 μM. As to the method:
as §3

For assay [5], the target named is T2, CYBB (Homo sapiens, UniProt P04839).
T2 sequence (P04839 1-570): T1 sequence (P04839 1-570)
Put plainly: Fluorescence binding titration of labeled CYBB with unlabeled NAMPT. The note with it: fluorescently labeled CYBB titrated with unlabeled NAMPT, curve fit; read-out: Kd of NAMPT-CYBB interaction.

For assay [6], the target named is TLR4 (Homo sapiens, UniProt O00206). Put plainly: Fluorescence binding titration of labeled TLR4 with unlabeled NAMPT. The note with it: fluorescently labeled TLR4 titrated with unlabeled NAMPT, curve fit; read-out: Kd of NAMPT-TLR4 interaction.
Chain of TLR4 (O00206 24-839, species assumed): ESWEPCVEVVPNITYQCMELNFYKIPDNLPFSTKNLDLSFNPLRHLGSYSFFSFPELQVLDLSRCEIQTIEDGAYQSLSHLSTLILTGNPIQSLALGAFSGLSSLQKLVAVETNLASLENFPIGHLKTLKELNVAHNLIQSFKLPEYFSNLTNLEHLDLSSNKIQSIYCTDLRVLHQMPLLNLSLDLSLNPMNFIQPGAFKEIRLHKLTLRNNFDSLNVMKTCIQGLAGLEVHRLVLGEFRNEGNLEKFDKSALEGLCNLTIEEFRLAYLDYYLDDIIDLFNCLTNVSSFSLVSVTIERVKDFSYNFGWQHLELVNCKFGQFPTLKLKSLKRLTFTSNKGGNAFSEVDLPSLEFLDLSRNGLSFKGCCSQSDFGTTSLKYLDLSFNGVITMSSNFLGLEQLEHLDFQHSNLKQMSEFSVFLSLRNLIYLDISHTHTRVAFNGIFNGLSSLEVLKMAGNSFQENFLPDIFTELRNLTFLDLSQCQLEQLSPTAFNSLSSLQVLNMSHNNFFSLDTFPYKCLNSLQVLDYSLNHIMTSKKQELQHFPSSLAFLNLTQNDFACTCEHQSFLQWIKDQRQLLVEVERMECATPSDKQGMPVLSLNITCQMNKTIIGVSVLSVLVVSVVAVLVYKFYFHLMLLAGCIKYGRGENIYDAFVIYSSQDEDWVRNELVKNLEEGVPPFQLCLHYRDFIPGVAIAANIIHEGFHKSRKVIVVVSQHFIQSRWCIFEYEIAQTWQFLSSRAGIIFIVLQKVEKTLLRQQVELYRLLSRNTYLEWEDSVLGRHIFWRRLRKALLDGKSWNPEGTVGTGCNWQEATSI

Consider “NAMPT peptides aa 52-56: peptide of amino acids 52 to 56 of NAMPT (SEQ ID NO: 1), binds CYBB (VKYEE; listed as Homo sapiens)”, for which, in assay [1], the “activation of NF-κB” value is on record as “partially inhibited”, the “production of cytokines (NF-κB-induced)” value is reported as “partially inhibited” and the “generation of ROS” value is “partially inhibited”.
For the substance “NAMPT peptides aa 57-65: peptide of amino acids 57 to 65 of NAMPT (SEQ ID NO: 1), binds TLR4 (TVFYGLQYI; listed as Homo sapiens)”, in assay [1], the “activation of NF-κB” value is recorded as “partially inhibited”, the “production of cytokines (NF-κB-induced)” value is listed as “partially inhibited” and the “generation of ROS” value is recorded as “partially inhibited”.
In the case of “NAMPT peptides aa 52-65: peptide of amino acids 52 to 65 of NAMPT (SEQ ID NO: 1), binds TLR4 and CYBB (VKYEETVFYGLQYI; listed as Homo sapiens)”, in assay [2] (FIG. 4D lower, FIG. 4E right), the “action of eNAMPT on NLRP3 inflammasome signal 2” value is reported as “specifically inhibited the action of eNAMPT”. Also, the “ATP-induced caspase-1 cleavage” value in assay [2] (LPS-primed BMDMs, ATP 30 minutes) is “efficiently inhibited”. Also, in assay [2] (LPS-primed BMDMs, ATP, nigericin or DSS stimulation), the “maturation of IL-1β and IL-18” value is reported as “efficiently inhibited”. In assay [1], the “production of cytokines (NF-κB-induced)” value is recorded as “markedly inhibited” and the “generation of ROS” value is “markedly inhibited”.
For the substance “TAT-NAMPT (aa 40-69) (GRKKRRQRRRPQREKKTENSKLRKVKYEETVFYGLQYILNKY)”, the “binding of NAMPT to CYBB (IP/IB)” value in assay [3] is listed as “bound to CYBB”. In addition, the “binding of NAMPT to TLR4 (IP/IB)” value in assay [4] was “reduced the binding of NAMPT to TLR4”.
One may read the Kd as the constant that tells how readily two partners part at equilibrium. “Nicotinamide phosphoribosyl transferase [NAMPT]”: the Kd worked out at 0.896 µM in assay [5] and 0.219 µM in assay [6].
